System: ischemia-induced retinal neovascularization
Test: Mouse model of retinopathy of prematurity (ROP), ischemia-induced retinal neovascularization
Assay type: in vivo, C57Bl/6 mice
Conditions: for Activity At Dose Tested: intravitreal 20 micrograms, P17; for Mean % Reduction of Retinal Neovascularization In ROP Model: intravitreal injection of 1.0 microliters containing 20 micrograms of Test Compound at P12, neovascular area at P17 (Taurine solutions 3.0 mg/100 μL)
Procedure: Each test compound was prepared in sterile water for injection, containing 0.08 mg/100 μL of sodium chloride and 0.005 mg/100 μL of trisodium citrate, the concentration of the peptide was at a concentration of […] and pH=2.7 and dispensed by sterile filtration into sterile vials. The Taurine test compound was obtained from Sigma Aldrich company, which was >99% pure, and prepared the same way as mentioned previously, having a concentration of 3.0 mg/100 μL. The R-G-Cys(acid) at 2.0 mg/100 μL+Taurine at 3.0 mg/100 μL were prepared the same way as mentioned above
To screen the test compounds for activity against ischemia-induced retinal neovascularization, the well-established model of retinopathy of prematurity (ROP) in mice was used. Litters of C57Bl/6 mice were placed in 75% oxygen at postnatal day (P) 7, returned to room air at day (P) 12. The Pups were randomly assigned to treatment groups of 4 to 10 animals per group. The pups were treated as follows: Treatment eyes were treated by intravitreal injection of 1.0 microliters of solution containing 20 micrograms of Test Compound.
On post-natal day 17, 5 days after intravitreal injection, the animals were sacrificed, the retinas were flat mounted and the area of neovascularization in each retina was determined by Fluorescein-dextran image analysis.
Applicant has identified the tripeptide R-G-Cysteic(Acid) as an integrin binding motif of the oligopeptide Glycinyl-Arginyl-Glycinyl-Cysteic(Acid)-Threonyl-Proline (ALG-1001 or Luminate®, Allegro Ophthalmics, LLC). The trifluoroacetate (TFA) and acetate salts of the R-G-Cysteic(Acid) tripeptide (Test Compound Nos. 1 and 2) were tested in both the ROP Mouse Model as described above as well as in a mouse model of choroidal neovascularization induced by laser photocoagulation (“CNV Mouse Model”), as generally as described in Lambert, V., et al., Laser-Induced Choroidal Neovascarization Model to Study Age Related Macular Degeneration in Mice, Nature Protocols, 8; 2197-2211 (2013). […] In some of the experiments, an additional “Positive Control” group was included.
The following Table 1 summarizes the neovascularization inhibiting effect of each Test Compound at the dose tested. In each instance, the data was obtained using the ROP Mouse Model, except for the two table entries specifically labeled “CNV”. Only those table entries labeled “CNV” show data obtained from the CNV Mouse Model. Bar graphs showing the test results summarized in Table 1 are also provided herewith as FIGS. 1 through 27.

| Molecule | Activity At Dose Tested | Mean % Reduction of Retinal Neovascularization In ROP Model [%] |
| --- | --- | --- |
| NCCS(=O)(=O)O [Test Compound 25, Taurine, reference compound] | Slightly Active | 33 |
| R-G-Cys(acid)-G-G-GD-G•TFA [Test Compound 7] | Active | 62 |
| Cyclo-{R-G-D-D-F—NMe—V}•TFA [Test Compound 13] | Active | 75 |
| Cyclo-{R-G-Cys(acid)-F—N—Me—V} Acetate [Test Compound 12] | Active | 57 |
| R-D-G•TFA [Test Compound 18] | Active | 44 |
| R-A-Cys (acid)•TFA [Test Compound 3] | Active | 60 |

— patent publication US20190062371A1, “PEPTIDE COMPOSITIONS AND RELATED METHODS” (Allegro Pharmaceuticals, Inc., priority 2017, published 2019)
